# Reference: patent US10947252B2, “Inhibitors of KEAP1-Nrf2 protein-protein interaction” (Janssen Pharmaceutica NV, priority 2018, dated 2021)
# System: Glo-Response ARE-luc2P HEK293 cell line
# Experiment: ARE luciferase reporter cell-based assay;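 also: luciferase signal tracks Nrf2 activation of the ARE once compounds disrupt KEAP1-Nrf2 binding, read with One-Glo reagent, DMSO serving as low control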
# Settings: Homo sapiens, HEK293, 24 h, average of results obtained
row,SMILES,EC50
1,"CCn1nnc2c(C)c([C@H](CC(=O)O)c3ccc(C)c(CN4C[C@@H]5COCCN5c5ncccc5S4(=O)=O)c3)ccc21 (single isomer, unassigned) [Example 140, (*R)-3-(3-(((*R)-5,5-Dioxido-7a,8,10,11-tetrahydro-[1,4]oxazino[3,4-d]pyrido[2,3-f][1,2,5]thiadiazepin-6(7H)-yl)methyl)-4-methylphenyl)-3-(1-ethyl-4-methyl-1H-benzo[d][1,2,3]triazol-5-yl)propanoic Acid]",19 nM
2,"Cc1ccc([C@H](CC(=O)O)c2ccn3c(C(F)(F)F)nnc3c2C)cc1CN1C[C@@H]2CCCCN2c2ccccc2S1(=O)=O (relative stereo) [Example 299, (*S)-3-(3-(((*S)-5,5-Dioxido-7,7a,8,9,10,11-hexahydro-6H-benzo[f]pyrido[2,1-d][1,2,5]thiadiazepin-6-yl)methyl)-4-methylphenyl)-3-(8-methyl-3-(trifluoromethyl)-[1,2,4]triazolo[4,3-a]pyridin-7-yl)propanoic Acid]",11.4 nM
3,"CC[C@@H]1CN(Cc2cc([C@H](CC(=O)O)c3ccn4c(C(F)(F)F)nnc4c3C)ccc2C)S(=O)(=O)c2cc(C)cnc2O1 (relative stereo) [Example 194, (*S)-3-(3-(((*R)-4-Ethyl-8-methyl-1,1-dioxido-3,4-dihydro-2H-pyrido[2,3-b][1,4,5]oxathiazepin-2-yl)methyl)-4-methylphenyl)-3-(8-methyl-3-(trifluoromethyl)-[1,2,4]triazolo[4,3-a]pyridin-7-yl)propanoic Acid]",2 nM
4,"Cc1c([C@H](CC(=O)O)c2ccc(Cl)c(CN3CC4(COC4)Oc4ccccc4S3(=O)=O)c2)ccn2c(C(F)(F)F)nnc12 (single isomer, unassigned) [Example 96, (*R)-3-(4-Chloro-3-((1′,1′-dioxoidospiro[benzo[b]]oxethiazepine-4,3′-oxetan]-2(3H)-yl)methyl)phenyl)-3-(8-methyl-3-(trifluoromethyl)-[1,2,4]triazolo[4,3-a]pyridine-7-yl)propanoic Acid]",491 nM
5,"Cc1cnc2c(c1)S(=O)(=O)N(Cc1cc([C@@H](CC(=O)O)c3ccn4c(C(F)F)nnc4c3C)ccc1C)C[C@@H]1CCCCN21 (stereo in doubt) [Example 501, (*R)-3-(3-(Difluoromethyl)-8-methyl-[1,2,4]triazolo[4,3-a]pyridin-7-yl)-3-(4-methyl-3-(((*S)-3-methyl-5,5-dioxido-7,7a,8,9,10,11-hexahydro-6H-dipyrido[2,1-d:2′,3′-f][1,2,5]thiadiazepin-6-yl)methyl)phenyl)propanoic Acid]",34.5 nM
6,"Cc1cc2cc([C@@H](c3ccc(C)c(CN4CC5(CC5)Oc5nc(OCCN6CCCCC6)c(C)cc5S4(=O)=O)c3)C(C)(C)C(=O)O)n(C)c2nn1 (single isomer, unassigned) [Example 350, (*S)-3-(3,7-Dimethyl-7H-pyrrolo[2,3-c]pyridazine-6-yl)-2,2-dimethyl-3-(4-methyl-3-((8′-methyl-1′,1′-dioxido-7′-(2-(piperidine-1-yl)-ethoxy)spiro[cyclopropane-1,4′-pyrido[2,3-b][1,4,5]oxathiazepin]-2′,(3′H)-yl)methyl)phenyl)propanoic Acid]",23.4 nM
7,"Cc1ccc([C@H](CC(=O)O)c2ccn3c(C(F)(F)F)nnc3c2C)cc1CN1C[C@]2(C)CCCN2c2ncccc2S1(=O)=O (relative stereo) [Example 186, (*S)-3-(4-Methyl-3-(((*S)-7a-methyl-5,5-dioxido-7a,8,9,10-tetrahydropyrido[2,3-f]pyrrolo[2,1-d][1,2,5]thiadiazepin-6(7H)-yl)methyl)phenyl)-3-(8-methyl-3-(trifluoromethyl)-[1,2,4]triazolo[4,3-a]pyridin-7-yl)propanoic Acid]",47 nM
8,"Cc1cnc2c(c1)S(=O)(=O)N(Cc1cc([C@H](CC(=O)O)c3ccn4c(C(F)F)nnc4c3C)ccc1C)C[C@H]1CCCCN21 (stereo in doubt) [Example 503, (*S)-3-(3-(Difluoromethyl)-8-methyl-[1,2,4]triazolo[4,3-a]pyridin-7-yl)-3-(4-methyl-3-(((*R)-3-methyl-5,5-dioxido-7,7a,8,9,10,11-hexahydro-6H-dipyrido[2,1-d:2′,3′-f][1,2,5]thiadiazepin-6-yl)methyl)phenyl)propanoic Acid]",2.58 nM
9,"CCn1nnc2c(C)c(C(CC(=O)O)c3ccc(C)c(CN4CC(C)(C)Oc5ncccc5S4(=O)=O)c3)ccc21 (racemic) [Example 150, (R/S)-3-[3-[(4,4-Dimethyl-1,1-dioxo-3H-pyrido[2,3-b][1,4,5]oxathiazepin-2-yl)methyl]-4-methyl-phenyl]-3-(1-ethyl-4-methyl-benzotriazol-5-yl)propanoic Acid]",56 nM
10,"Cc1ccc([C@H](CC(=O)O)c2ccc3c(nnn3C3CC3)c2C)cc1CN1CC2(CC2)N(C)c2ncccc2S1(=O)=O (single isomer, unassigned) [Example 225, (*S)-3-(1-Cyclopropyl-4-methyl-1H-benzo[d][1,2,3]triazol-5-yl)-3-(4-methyl-3-((5′-methyl-1′,1′-dioxido-5′H-spiro[cyclopropane-1,4′-pyrido[2,3-f][1,2,5]thiadiazepin]-2′(3′H)-yl)methyl)phenyl)propanoic Acid]",5 nM
11,"Cc1ccc([C@H](CC(=O)O)c2ccn3c(C(F)(F)F)nnc3c2C)cc1CN1C[C@@H]2CCCCN2c2ncc(F)cc2S1(=O)=O (relative stereo) [Example 309, (*S)-3-(3-(((*S)-3-fluoro-5,5-dioxido-7,7a,8,9,10,11-hexahydro-6H-dipyrido[2,1-d:2′,3′-f][1,2,5]thiadiazepin-6-yl)methyl)-4-methylphenyl)-3-(8-methyl-3-(trifluoromethyl)-[1,2,4]triazolo[4,3-a]pyridin-7-yl)propanoic Acid]",0.9 nM
12,"Cc1cc2cc([C@@H](c3ccc(C)c(CN4CC5(CC5)Oc5nc(OCCN6CCCC6)c(C)cc5S4(=O)=O)c3)C(C)(C)C(=O)O)n(C)c2nn1 (single isomer, unassigned) [Example 352, (*S)-3-(3,7-Dimethyl-7H-pyrrolo[2,3-c]pyridazine-6-yl)-2,2-dimethyl-3-(4-methyl-3-((8′-methyl-1′,1′-dioxido-7′-(2-(pyrrolidin-1-yl)-ethoxy)spiro[cyclopropane-1,4′-pyrido[2,3-b][1,4,5]oxathiazepin]-2′,(3′H)-yl)methyl)phenyl)propanoic Acid]",43.7 nM
13,"Cc1cc2cc([C@@H](c3ccc(C)c(CN4CC5(CCOCC5)Oc5nc(OCCN6CCCCC6)c(C)cc5S4(=O)=O)c3)C(C)(C)C(=O)O)n(C)c2nn1 (single isomer, unassigned) [Example 348, (*S)-3-(3,7-Dimethyl-7H-pyrrolo[2,3-c]pyridazine-6-yl)-2,2-dimethyl-3-(4-methyl-3-((8′-methyl-1′,1′-dioxido-7′-(2-(piperidine-1-yl)-ethoxy)2,3,5,6-tetrahydrospiro[pyran-4,4′-pyrido[2,3-b][1,4,5]oxathiazepin]-2′,(3′H)-yl)methyl)phenyl)propanoic Acid]",19.2 nM
14,"CCn1nnc2c(C)c([C@H](CC(=O)O)c3ccc(C)c(CN4CC(C)(C)Oc5ccccc5S4(=O)=O)c3)ccc21 (single isomer, unassigned) [Example 159, (*R)-3-(3-((4,4-Dimethyl-1,1-dioxido-3,4-dihydro-2H-benzo[b][1,4,5]oxathiazepin-2-yl)methyl)-4-methylphenyl)-3-(1-ethyl-4-methyl-1H-benzo[d][1,2,3]triazol-5-yl)propanoic Acid]",34 nM
